# The source made the active and inactive calls.
# Experiments:
# [1] = HepG2 cell cytotoxicity, dose response, cytotoxicity control for non-replicating M. tuberculosis project (AID 489018); assay type: functional; details: Mycobacterium tuberculosis
# [2] = Vero E6 cell cytotoxicity, dose response, cytotoxicity control for non-replicating M. tuberculosis project, secondary assay (AID 492998); assay type: functional, VeroE6; details: Vero C1008
# cells = assay type: functional
# [3] = THP-1 cell cytotoxicity, dose response, cytotoxicity control for non-replicating M. tuberculosis project (AID 489025); assay type: functional
# Fatty acid synthase [4] = molecular target: T1, Fatty acid synthase (Homo sapiens, UniProt P49327); experiment: inhibition of human FAS-TE enzyme activity – biochemical, kinetic fluorescence intensity, dose response (AID 624326); assay type: functional;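 note: rate of fluorescence rise from hydrolysis of a fluorogenic O-methyl fluorescein ester substrate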
# Fatty acid synthase [5] = molecular target: T1, Fatty acid synthase; experiment: inhibition of human FAS-TE enzyme activity – biochemical, endpoint fluorescence intensity, uHTS hits, dose response (AID 624327); assay type: functional;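 note: fluorescence from hydrolysis of an O-methyl fluorescein acyl ester substrate by the enzyme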
# [6] = molecular target: T2, Short transient receptor potential channel 4 (Mus musculus, UniProt Q9QUQ5); experiment: block of DAMGO-driven TRPC4 calcium entry – cell-based, HEK293 TRPC4/mu-opioid, Fluo-4 calcium, dose response (AID 434942); assay type: functional;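 note: potency of inhibitors blocking the TRPC4 calcium response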
# T2 sequence (Q9QUQ5 whole entry): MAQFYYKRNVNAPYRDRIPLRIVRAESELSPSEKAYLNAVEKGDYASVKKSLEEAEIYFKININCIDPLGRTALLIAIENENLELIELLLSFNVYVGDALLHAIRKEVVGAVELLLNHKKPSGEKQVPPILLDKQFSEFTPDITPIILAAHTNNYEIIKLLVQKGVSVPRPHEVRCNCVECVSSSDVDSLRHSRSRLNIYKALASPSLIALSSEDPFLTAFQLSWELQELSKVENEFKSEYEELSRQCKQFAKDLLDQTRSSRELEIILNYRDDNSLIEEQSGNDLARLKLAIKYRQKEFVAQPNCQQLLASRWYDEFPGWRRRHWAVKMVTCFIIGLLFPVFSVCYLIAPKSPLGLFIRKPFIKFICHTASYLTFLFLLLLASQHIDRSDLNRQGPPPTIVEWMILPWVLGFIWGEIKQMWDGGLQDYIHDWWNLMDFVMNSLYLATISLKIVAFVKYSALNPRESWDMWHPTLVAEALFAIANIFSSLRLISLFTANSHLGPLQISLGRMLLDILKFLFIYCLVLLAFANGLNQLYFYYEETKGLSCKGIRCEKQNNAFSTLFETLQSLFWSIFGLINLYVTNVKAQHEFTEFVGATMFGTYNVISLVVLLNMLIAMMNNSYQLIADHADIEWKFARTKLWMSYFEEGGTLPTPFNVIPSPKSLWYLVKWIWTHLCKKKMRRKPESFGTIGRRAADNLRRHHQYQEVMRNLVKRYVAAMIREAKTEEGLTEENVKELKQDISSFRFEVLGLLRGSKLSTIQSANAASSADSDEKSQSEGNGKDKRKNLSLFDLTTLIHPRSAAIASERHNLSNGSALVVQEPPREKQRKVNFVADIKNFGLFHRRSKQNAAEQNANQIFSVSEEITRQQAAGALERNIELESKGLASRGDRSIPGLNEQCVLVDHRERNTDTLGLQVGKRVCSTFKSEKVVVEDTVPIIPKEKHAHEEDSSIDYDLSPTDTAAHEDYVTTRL
# Streptokinase A = molecular target: T3, Streptokinase A (Streptococcus pyogenes serotype M1, UniProt P10520); experiment: viability-normalized secreted streptokinase activity reduction – plasminogen activation absorbance, OD405, dose response (AID 1914); assay type: functional, Streptococcus pyogenes M1 GAS;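 note: secreted streptokinase activity via plasminogen activation per viability signal from cell pellet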
# T3 sequence (P10520 whole entry): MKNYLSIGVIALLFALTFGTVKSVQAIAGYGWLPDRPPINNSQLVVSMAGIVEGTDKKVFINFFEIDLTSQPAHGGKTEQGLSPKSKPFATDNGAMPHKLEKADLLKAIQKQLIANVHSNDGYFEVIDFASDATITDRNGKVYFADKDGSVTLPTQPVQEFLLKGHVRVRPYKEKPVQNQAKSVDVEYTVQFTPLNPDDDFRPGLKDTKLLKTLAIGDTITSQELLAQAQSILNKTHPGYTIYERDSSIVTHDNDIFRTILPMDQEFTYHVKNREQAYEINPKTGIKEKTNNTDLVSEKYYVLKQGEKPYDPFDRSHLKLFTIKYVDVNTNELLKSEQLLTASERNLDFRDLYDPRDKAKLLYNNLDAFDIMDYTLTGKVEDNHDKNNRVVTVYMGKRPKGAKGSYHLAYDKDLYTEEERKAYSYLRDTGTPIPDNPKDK
# Streptococcus = experiment: GAS UMAA2166 growth inhibition – luminescence, BacTiterGlo, counter-screen for streptokinase expression inhibitor project, dose response (AID 1915); assay type: functional, organism-based;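 note: potency for reduction of bacterial viability or growth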
# [7] = test system: Streptococcus sp. 'group A'; experiment: Streptococcus pyogenes SK(-)GAS viability under kanamycin – luminescence, BacTiterGlo, confirmation, counter-screen for streptokinase expression inhibitor project, dose response (AID 1900); assay type: functional, organism-based
# [8] = molecular target: FAD-linked sulfhydryl oxidase ALR (Homo sapiens, UniProt P55789); experiment: ALR-catalysed DTT oxidation blockers – biochemical, H2O2 detection, luminescence, cherry-pick, dose response (AID 493248)
# Genome polyprotein = Genome polyprotein (dengue virus type 2, UniProt P29990); experiment: flavivirus cap methylation enzyme inhibition – biochemical, confirmation dose response, primary screen (AID 588689); assay type: functional
# Vero = experiment: cells; assay type: functional; details: Chlorocebus sabaeus
# [9] = molecular target: T4, High affinity choline transporter 1 (Homo sapiens, UniProt Q9GZV3); experiment: human choline transporter blockers, potency – cell-based, 5-point CRC, membrane potential dye, dose response (AID 504840); assay type: functional
# T4 sequence (Q9GZV3 whole entry): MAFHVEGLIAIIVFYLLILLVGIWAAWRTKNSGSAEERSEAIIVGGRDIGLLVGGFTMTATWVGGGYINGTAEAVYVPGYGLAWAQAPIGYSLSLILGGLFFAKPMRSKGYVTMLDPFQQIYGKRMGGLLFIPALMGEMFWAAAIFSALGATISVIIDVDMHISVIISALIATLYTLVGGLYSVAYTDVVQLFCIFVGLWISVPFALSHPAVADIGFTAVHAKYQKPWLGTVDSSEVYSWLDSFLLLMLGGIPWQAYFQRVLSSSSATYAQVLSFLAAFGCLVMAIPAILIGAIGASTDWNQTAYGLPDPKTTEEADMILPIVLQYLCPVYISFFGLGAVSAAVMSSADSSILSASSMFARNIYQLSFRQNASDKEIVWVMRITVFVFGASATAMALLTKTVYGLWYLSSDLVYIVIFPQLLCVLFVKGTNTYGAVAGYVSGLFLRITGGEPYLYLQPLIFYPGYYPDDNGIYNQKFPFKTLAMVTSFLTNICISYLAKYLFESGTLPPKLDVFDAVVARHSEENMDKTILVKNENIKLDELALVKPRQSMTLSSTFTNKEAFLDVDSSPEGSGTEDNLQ
# [10] = molecular target: T5, Ubiquitin-conjugating enzyme E2 N (Homo sapiens, UniProt P61088); assay type: functional;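 note: Dose-response confirmation in a TR-FRET assay detecting UBC13-driven polyubiquitin chain formation, inhibition measured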
# T5 sequence (P61088 whole entry): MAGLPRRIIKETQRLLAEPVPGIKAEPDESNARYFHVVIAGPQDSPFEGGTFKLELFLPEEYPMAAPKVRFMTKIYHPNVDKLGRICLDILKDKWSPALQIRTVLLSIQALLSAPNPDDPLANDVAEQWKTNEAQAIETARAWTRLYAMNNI
# [11] = molecular target: T6, DNA repair protein RAD52 homolog (Homo sapiens, UniProt P43351); assay type: functional, biochemical
# T6 sequence (P43351 whole entry): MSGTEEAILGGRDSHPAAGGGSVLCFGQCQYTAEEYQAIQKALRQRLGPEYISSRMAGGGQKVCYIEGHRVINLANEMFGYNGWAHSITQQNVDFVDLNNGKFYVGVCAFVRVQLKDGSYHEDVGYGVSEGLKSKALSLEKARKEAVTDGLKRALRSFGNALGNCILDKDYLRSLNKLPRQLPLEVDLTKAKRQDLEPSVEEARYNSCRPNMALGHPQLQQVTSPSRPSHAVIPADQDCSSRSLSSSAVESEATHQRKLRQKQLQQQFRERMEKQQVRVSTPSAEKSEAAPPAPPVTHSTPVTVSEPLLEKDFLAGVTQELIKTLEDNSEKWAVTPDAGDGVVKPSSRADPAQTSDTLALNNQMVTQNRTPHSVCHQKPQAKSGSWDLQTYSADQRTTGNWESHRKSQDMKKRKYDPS
# [12] = molecular target: Heat shock protein HSP 90-alpha (Homo sapiens, UniProt P07900); assay type: functional, organism-based
# Cytochrome P450 2C9 = Cytochrome P450 2C9 (Homo sapiens, UniProt P11712)
# [13] = Luminescence Cell-Based Dose Retest to Confirm Inhibitors of Cancer Stem Cells. [Related pubchem assays (depositor defined):AID2717, AID2721]; assay type: functional; details: Homo sapiens
# Cytochrome P450 2C19 = Cytochrome P450 2C19 (Homo sapiens, UniProt P33261); experiment: Cytochrome panel assay with activity outcomes. Panel member name: p450-cyp2c19 Compounds with AC50 equal or less than 10 uM are considered active; assay type: functional; details: read-out: AC50
# Cytochrome P450 3A4 = Cytochrome P450 3A4 (Homo sapiens, UniProt P08684);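 note: CYP3A4 tested as one member of a cytochrome P450 panel screen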
# Cytochrome P450 3A4, sequence (P08684 whole entry): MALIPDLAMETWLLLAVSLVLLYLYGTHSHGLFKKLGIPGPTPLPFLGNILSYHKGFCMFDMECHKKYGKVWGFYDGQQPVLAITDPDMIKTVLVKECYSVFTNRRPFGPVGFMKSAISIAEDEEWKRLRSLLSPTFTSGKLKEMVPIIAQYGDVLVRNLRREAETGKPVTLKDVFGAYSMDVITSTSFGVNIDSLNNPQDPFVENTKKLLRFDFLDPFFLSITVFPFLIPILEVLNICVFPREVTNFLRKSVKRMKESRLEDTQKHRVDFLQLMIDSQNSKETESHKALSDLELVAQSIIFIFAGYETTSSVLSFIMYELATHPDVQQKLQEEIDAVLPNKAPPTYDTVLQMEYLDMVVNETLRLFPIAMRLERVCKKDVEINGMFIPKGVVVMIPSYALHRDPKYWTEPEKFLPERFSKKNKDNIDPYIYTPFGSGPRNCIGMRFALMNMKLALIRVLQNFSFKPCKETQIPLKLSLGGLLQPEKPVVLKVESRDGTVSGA
# T1 sequence (P49327 whole entry): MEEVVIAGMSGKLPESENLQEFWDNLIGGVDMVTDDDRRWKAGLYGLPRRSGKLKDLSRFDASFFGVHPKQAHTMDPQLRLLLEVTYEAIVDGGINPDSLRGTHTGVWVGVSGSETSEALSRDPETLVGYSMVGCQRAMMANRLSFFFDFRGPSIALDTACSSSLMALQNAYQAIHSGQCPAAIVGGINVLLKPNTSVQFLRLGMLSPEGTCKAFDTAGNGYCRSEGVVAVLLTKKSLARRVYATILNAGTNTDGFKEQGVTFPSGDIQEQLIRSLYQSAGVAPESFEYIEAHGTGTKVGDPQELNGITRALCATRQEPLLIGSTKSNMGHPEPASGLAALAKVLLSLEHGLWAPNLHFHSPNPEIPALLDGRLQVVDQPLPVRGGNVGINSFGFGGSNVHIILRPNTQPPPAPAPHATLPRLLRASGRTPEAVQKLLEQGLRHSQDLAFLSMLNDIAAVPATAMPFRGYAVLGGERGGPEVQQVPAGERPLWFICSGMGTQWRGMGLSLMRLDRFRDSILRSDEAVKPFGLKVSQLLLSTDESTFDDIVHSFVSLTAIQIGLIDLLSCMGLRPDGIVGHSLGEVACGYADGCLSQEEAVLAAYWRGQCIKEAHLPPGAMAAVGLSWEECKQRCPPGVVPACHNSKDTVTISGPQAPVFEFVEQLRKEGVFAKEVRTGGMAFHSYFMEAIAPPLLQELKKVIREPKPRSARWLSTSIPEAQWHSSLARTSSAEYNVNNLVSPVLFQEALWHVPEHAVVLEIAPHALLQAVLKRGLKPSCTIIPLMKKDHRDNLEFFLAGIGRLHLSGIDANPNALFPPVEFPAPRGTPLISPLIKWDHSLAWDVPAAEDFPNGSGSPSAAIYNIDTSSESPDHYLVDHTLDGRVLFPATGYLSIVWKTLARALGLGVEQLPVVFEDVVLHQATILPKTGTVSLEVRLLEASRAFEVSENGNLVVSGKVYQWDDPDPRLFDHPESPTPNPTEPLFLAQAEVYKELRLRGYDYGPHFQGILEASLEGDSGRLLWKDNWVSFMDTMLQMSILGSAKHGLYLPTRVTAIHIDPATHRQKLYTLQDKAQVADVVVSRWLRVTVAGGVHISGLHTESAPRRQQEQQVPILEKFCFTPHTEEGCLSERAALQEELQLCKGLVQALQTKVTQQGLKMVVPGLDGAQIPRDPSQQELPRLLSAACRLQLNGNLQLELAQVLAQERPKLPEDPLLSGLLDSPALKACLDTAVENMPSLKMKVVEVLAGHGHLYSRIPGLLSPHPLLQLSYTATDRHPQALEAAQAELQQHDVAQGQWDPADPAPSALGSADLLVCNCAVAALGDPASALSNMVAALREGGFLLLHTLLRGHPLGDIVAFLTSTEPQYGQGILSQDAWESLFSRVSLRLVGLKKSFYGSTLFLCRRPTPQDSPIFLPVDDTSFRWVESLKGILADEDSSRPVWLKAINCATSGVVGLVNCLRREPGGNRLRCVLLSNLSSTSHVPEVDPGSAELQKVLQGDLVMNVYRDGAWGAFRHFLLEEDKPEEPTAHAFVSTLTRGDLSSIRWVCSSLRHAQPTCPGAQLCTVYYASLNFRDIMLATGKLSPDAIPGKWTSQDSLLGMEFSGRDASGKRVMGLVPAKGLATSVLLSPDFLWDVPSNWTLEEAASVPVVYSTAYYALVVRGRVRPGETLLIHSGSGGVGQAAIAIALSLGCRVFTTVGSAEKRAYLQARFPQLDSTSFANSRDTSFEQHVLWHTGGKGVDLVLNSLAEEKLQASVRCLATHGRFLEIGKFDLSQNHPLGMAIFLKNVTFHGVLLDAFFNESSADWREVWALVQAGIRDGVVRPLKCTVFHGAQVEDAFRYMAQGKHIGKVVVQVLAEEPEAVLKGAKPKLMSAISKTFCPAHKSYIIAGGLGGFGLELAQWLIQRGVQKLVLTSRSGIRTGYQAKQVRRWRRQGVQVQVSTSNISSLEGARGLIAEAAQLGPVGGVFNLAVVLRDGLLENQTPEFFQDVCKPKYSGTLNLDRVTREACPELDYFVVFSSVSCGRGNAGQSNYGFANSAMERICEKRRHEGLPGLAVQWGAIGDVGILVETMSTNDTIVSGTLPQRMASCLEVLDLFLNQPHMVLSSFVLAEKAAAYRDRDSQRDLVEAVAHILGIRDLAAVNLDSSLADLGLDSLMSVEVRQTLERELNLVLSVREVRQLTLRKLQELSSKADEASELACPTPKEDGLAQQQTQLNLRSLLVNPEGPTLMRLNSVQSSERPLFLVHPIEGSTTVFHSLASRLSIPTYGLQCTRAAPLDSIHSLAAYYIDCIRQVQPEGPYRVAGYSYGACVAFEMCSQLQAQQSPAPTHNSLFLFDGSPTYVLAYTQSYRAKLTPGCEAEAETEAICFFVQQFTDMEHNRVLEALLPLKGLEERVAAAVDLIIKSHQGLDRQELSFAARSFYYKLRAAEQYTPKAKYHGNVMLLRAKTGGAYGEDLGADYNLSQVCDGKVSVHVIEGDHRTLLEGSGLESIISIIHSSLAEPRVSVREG
# Genome polyprotein, sequence (P29990 2492-3391 limits assumed): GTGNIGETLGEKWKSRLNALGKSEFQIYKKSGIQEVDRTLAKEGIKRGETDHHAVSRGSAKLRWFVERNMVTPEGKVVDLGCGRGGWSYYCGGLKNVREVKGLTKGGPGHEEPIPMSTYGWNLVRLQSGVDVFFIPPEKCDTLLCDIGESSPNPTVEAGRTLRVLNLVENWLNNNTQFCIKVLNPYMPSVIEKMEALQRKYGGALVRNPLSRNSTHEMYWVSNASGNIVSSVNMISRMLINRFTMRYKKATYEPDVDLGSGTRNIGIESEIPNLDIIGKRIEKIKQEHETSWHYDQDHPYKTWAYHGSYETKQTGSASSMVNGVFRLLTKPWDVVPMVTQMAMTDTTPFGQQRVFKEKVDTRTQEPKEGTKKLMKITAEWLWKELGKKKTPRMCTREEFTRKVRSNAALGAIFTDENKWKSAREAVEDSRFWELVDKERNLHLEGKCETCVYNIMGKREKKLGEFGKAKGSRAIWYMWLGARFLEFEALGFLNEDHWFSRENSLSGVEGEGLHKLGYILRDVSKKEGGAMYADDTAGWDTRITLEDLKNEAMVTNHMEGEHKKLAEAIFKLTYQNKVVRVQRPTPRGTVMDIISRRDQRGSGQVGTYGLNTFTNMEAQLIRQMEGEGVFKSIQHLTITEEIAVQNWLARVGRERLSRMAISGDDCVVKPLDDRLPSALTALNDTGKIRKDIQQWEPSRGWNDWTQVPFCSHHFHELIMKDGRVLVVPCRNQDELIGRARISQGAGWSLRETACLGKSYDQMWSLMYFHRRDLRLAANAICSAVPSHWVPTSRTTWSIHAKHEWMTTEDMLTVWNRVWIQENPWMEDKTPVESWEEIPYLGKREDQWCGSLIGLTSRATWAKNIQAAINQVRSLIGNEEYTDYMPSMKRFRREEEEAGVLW
# FAD-linked sulfhydryl oxidase ALR, sequence (P55789 whole entry): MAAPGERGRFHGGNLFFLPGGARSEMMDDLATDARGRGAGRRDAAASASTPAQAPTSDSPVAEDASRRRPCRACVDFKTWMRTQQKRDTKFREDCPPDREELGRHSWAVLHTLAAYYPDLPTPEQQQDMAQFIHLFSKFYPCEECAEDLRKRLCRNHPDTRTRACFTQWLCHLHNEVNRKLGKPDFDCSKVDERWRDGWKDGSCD
# Cytochrome P450 2C19, sequence (P33261 whole entry): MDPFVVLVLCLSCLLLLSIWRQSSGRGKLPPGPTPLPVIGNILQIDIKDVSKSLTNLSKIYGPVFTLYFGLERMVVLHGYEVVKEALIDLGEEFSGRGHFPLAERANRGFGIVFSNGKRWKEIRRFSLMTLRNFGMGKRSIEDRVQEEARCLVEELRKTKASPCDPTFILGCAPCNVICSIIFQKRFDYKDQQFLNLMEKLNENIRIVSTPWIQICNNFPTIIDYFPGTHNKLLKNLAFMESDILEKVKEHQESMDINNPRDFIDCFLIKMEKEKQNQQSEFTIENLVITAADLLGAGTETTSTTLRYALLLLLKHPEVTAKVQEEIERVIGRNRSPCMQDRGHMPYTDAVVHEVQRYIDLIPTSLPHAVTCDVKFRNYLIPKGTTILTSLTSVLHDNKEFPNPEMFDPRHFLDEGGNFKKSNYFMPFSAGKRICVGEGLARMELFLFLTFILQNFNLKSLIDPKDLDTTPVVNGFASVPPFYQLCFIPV
# Cytochrome P450 2C9, sequence (P11712 whole entry): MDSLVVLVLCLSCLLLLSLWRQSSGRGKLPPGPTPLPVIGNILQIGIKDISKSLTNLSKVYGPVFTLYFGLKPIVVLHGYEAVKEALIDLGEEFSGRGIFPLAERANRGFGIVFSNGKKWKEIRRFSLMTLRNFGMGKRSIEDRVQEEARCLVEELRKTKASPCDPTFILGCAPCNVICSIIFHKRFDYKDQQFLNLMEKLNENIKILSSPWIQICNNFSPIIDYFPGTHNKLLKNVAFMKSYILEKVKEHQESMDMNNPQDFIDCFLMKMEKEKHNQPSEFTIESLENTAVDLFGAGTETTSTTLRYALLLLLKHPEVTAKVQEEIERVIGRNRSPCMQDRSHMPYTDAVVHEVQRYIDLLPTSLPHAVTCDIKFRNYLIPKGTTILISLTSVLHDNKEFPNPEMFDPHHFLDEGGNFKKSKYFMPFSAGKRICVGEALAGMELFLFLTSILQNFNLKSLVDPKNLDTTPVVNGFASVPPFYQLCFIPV
smiles,measurement,setting,value
Cc1cccc(-c2cc3nc(C)c(C)c(NCCCn4ccnc4)n3n2)c1,CC50,[1],16.4 µM (active)
same,CC50,[2],> 20 µM (active)
same,IC50,cells,9.68 µM (active)
same,CC50,[3],20.6 µM (active)
O=C(CCC(=O)Nc1cccc(Cl)c1)N/N=C/c1cc([N+](=O)[O-])ccc1O,IC50,Fatty acid synthase [4],5.71 µM (active)
same,IC50,Fatty acid synthase [5],4.21 µM (active)
Cc1ccc(S(=O)(=O)c2cnc(-c3ccccc3)nc2N2CCN(C)CC2)cc1,EC50,[6],6.68 µM (active)
CC(C)Sc1nc2sc3c(c2c2nnc(SCC(=O)NCc4ccco4)n12)CCCC3,EC50,[6],3.76 µM (active)
Oc1c2c(nc3c(-c4ccc(Cl)cc4)cnn13)CCC2,CC50,[1],12.7 µM (active)
same,CC50,[2],10.7 µM (active)
same,EC50,Streptokinase A,> 150 µM (not active)
same,EC50,Streptococcus,12.3 µM (active)
same,EC50,[7],4.33 µM (active)
same,IC50,cells,12.2 µM (active)
same,CC50,[3],5.23 µM (active)
CCc1nc2ccccc2n1Cc1ccccc1OC,EC50,[6],10.6 µM (active)
CN1C(=O)/C(=C/c2cccc([N+](=O)[O-])c2)C(=O)N1c1ccccc1,AC50,[8],533 nM (active)
same,IC50,Genome polyprotein,26.3 µM (active)
COc1ccc(C(=O)Oc2c(CN3CCOCC3)cc(Cl)c3cccnc23)cc1OC,CC50,[1],15 µM (active)
same,CC50,[2],8.82 µM (active)
same,IC50,cells,34.6 µM (active)
same,CC50,[3],12.2 µM (active)
Cc1ccc(OCC(=O)NNC(=S)NC(=O)c2ccc(Br)o2)c(C)c1,CC50,Vero,> 25 µM (active)
same,EC50,[6],13.3 µM (active)
same,EC50,Streptococcus,1.33 µM (active)
same,EC50,[7],< 0.06 µM (active)
CCN1CCN(CCNC(=O)c2ccc3nc(-c4cccc(C)c4)c(-c4cccc(C)c4)nc3c2)CC1,IC50,[9],3.76 µM (active)
same,IC50,[10],> 20 µM (inactive)
same,AC50,[11],13.5 µM (active)
Cc1ccc(C(=O)CN(CCC(=O)O)S(=O)(=O)c2ccc([N+](=O)[O-])cc2)cc1,IC50,Fatty acid synthase [4],3.55 µM (active)
same,IC50,Fatty acid synthase [5],5.88 µM (active)
Cn1ncc2c(Nc3cccc(Cl)c3)nc(Nc3cccc(Cl)c3)nc21,AC50,[12],4.31 µM (active)
same,AC50,Cytochrome P450 2C9,7.94 µM (inconclusive)
same,EC50,Streptococcus,2.92 µM (active)
same,EC50,[7],2.68 µM (active)
same,AC50,[13],2.88 µM (active)
same,AC50,Cytochrome P450 2C19,3.16 µM (inconclusive)
same,AC50,Cytochrome P450 3A4,6.31 µM (inconclusive)
CCOC(=O)C1(CCc2ccccc2)CCN(Cc2ccccn2)CC1,EC50,[6],4.22 µM (active)
same,IC50,cells,3.96 µM (active)
O=C(CC1C[C@H](C(=O)N2CCOCC2)[C@@]2(CCC3CCCC3)c3[nH]c4ccccc4c3CCN2C1=O)NCCC1=CCCCC1 (stereo partly drawn),IC50,Fatty acid synthase [4],35.1 µM (inactive)
same,IC50,Fatty acid synthase [5],22.2 µM (inactive)
O=C1Nc2ccc(F)cc2C12Nc1ccccc1-c1nnc(SCc3ccccc3)nc1O2 (stereo not drawn),IC50,Genome polyprotein,46.2 µM (active)
COc1ccc(S(=O)(=O)NC2CC3CCC2C3)cc1Br (stereo not drawn),AC50,[12],5.25 µM (active)
COc1ccccc1N1C(=O)NC(=O)/C(=C/c2ccc3c(c2)Cc2ccccc2-3)C1=O,IC50,Genome polyprotein,59.4 µM (active)
Cc1ccccc1[N+]1=C2CCCCN2C(O)(c2cccs2)C1 (stereo not drawn),EC50,[6],2.37 µM (active)
O=C(COC(=O)CC1CC2CCC1C2)Nc1cc([N+](=O)[O-])ccc1F (stereo not drawn),IC50,Fatty acid synthase [4],3.72 µM (active)
same,IC50,Fatty acid synthase [5],4.15 µM (active)

# Source: ChEMBL document CHEMBL1201862, “PubChem BioAssay data set” (2004)
